“Also recorded” adds a separate entry of the source.
Molecular target: T1, JAK3 (Homo sapiens, UniProt P52333)
T1 sequence (P52333 1-1124): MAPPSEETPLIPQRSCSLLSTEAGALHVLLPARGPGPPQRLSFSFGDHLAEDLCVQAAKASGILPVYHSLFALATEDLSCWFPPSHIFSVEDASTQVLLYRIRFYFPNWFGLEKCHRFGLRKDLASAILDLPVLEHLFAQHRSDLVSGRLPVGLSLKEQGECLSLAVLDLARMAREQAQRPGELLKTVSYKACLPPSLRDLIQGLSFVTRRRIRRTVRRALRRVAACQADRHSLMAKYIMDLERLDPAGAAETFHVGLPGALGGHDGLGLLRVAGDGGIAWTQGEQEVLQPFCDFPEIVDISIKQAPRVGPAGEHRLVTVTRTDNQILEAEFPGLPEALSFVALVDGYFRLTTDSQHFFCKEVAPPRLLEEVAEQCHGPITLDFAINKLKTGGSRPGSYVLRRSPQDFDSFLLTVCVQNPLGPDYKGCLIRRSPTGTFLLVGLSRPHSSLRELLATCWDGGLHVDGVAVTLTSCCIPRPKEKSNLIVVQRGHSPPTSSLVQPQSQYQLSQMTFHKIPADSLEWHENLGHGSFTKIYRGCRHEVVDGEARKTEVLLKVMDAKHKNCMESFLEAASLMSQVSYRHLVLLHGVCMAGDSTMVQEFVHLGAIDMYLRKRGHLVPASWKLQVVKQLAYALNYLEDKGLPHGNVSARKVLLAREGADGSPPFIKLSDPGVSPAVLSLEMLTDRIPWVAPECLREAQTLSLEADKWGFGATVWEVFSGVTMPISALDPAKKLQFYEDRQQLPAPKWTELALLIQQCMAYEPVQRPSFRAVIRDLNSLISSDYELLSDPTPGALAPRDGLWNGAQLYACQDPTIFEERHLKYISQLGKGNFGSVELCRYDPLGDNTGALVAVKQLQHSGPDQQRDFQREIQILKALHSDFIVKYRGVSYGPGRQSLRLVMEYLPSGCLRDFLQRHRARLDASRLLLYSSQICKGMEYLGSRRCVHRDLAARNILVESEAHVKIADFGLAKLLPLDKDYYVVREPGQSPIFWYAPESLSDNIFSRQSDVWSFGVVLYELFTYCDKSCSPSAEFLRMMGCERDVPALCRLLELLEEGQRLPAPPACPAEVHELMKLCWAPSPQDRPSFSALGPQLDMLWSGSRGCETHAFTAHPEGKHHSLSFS
Experiment: Mass spectrometry identification of a JAK3 peptide modified by compound
Assay type: binding
Set-up: endogenous in cells; host or cells: Jurkat cells (ATCC TIB-152, clone E6-1) lysate; immunoprecipitated with anti-JAK3 antibody
Details: Jurkat cell lysate, 10 μM compound, 45 minutes, JAK3 immunoprecipitation, LC-MS/MS
Procedure: Mass spectrometry analysis of immunoprecipitated JAK3 after compound treatment was used to determine whether compound example 1 covalently binds to JAK3. Jurkat cell lysate was pre-incubated with 10 μM of compound example 1 for 45 minutes. Control samples were incubated without compound (DMSO controls). Subsequently JAK3 was immunoprecipitated with an anti-JAK3 antibody (Abeam ab45141). In addition, a control experiment was performed with anti-IgG (mock immunoprecipitation). The precipitated proteins were separated by SDS-polyacrylamide gel electrophoresis. The gel was stained with colloidal Coomassie and stained areas of each gel lane were cut out and subjected to in-gel proteolytic digestion with trypsin. The peptides originating from the three samples were labeled with iTRAQ reagents as shown in Table 13 and the combined samples were analyzed with a nano-flow liquid chromatography system coupled online to a tandem mass spectrometer (LC-MS/MS) experiment followed by iTRAQ reporter ion quantification in the MSMS spectra (Ross et al., 2004. Mol. Cell. Proteomics 3(12):1154-1169). The gel area containing JAK3 was analysed for 270 minutes with HCDiq (high mass accuracy MSMS spectra) on a Orbitrap Velos mass spectrometer. For the Mascot search standard parameters plus a variable modification of cysteine by compound example 1 was used. […]

In the case of C=CC(=O)Nc1cccc(Cn2ncc3cnc(Nc4cnn(C)c4)nc32)c1 [Example 1, N-(3-((6-((1-Methyl-1H-pyrazol-4-yl)amino)-1H-pyrazolo[3,4-d]pyrimidin-1-yl)methyl)phenyl)acrylamide], the “covalent binding to JAK3 (modified residue/peptide)” value is reported as “modified at cysteine 909; also recorded: covalently bound to cystein residue 909 (Cys909) of JAK3”.

Reference: patent US20140323504A1, “Pyrazolo[4,3-c]Pyridine Derivatives As Kinase Inhibitors” (Cellzome Limited, priority 2011, published 2014)
